# Results taken from ChEMBL document CHEMBL1137093, “Synthesis, receptor binding and functional studies of mesoridazine stereoisomers” (Bioorg Med Chem Lett, 2004).
# pIC50, pKi: −log10 of the molar value. Several values for one entry are separate records, joined by “and”; a condition that tells them apart may be missing. Identical values can stand only once.
# How the values were obtained:
# D(3) dopamine receptor = D(3) dopamine receptor (Homo sapiens, UniProt P35462)
# Description: Binding affinity towards human D3 dopamine receptor was determined by using [3H]YM-09151-2 as radioligand
# D(2) dopamine receptor [1] = molecular target: T1, D(2) dopamine receptor (Homo sapiens, UniProt P14416)
# Description: Binding affinity towards human D2 dopamine receptor was determined by using [3H]YM-09151-2 as radioligand
# D(1A) dopamine receptor [2] = molecular target: T2, D(1A) dopamine receptor (Homo sapiens, UniProt P21728)
# Description: Binding affinity towards human D1 dopamine receptor was determined by using [3H]-SCH- 23390 as radioligand
# [3] = Antagonism was determined as concentration required to inhibit quinpirole-induced mitogenesis in CHOp cells
# [4] = molecular target: T3, 5-hydroxytryptamine receptor 1A (Homo sapiens, UniProt P08908); experiment: Binding affinity towards human 5-hydroxytryptamine 1A receptor was determined by using [3H]8-OH-DPAT as radioligand
# T3 sequence (P08908 whole entry): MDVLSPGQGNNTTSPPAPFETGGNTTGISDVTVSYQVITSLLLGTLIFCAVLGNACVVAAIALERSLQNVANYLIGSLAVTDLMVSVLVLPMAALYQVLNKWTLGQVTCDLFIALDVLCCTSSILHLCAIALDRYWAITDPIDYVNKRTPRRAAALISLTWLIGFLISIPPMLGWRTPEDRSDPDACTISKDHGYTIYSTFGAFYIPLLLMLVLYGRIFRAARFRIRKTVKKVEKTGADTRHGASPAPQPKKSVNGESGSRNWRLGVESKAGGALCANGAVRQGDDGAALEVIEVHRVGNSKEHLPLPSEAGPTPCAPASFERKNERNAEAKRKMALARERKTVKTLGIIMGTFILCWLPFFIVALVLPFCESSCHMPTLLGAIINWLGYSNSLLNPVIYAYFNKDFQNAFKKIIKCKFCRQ
# D(1A) dopamine receptor [5] = molecular target: T2, D(1A) dopamine receptor; experiment: Antagonism of D1 dopamine receptor of human was determined in C6D1 low-density cells by using cyclic AMP assay
# [6] = molecular target: T4, 5-hydroxytryptamine receptor 2C (Rattus norvegicus, UniProt P08909); experiment: Binding affinity towards rat 5-hydroxytryptamine 2C receptor was determined by using [3H]mesulergine as radioligand
# T4 sequence (P08909 whole entry): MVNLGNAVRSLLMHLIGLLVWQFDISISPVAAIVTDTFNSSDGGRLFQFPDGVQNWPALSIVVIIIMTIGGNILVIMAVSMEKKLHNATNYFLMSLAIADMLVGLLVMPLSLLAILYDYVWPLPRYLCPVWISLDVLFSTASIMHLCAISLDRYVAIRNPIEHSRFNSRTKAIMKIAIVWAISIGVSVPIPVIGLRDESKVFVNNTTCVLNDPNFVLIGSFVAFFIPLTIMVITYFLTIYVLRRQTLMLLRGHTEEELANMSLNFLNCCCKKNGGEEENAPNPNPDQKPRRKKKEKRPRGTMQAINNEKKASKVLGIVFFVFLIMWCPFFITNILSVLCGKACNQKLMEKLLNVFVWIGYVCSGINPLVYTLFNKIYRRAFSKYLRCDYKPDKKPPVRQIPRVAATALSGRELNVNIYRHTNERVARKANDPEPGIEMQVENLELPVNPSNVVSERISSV
# [7] = molecular target: T5, 5-hydroxytryptamine receptor 2A (Rattus norvegicus, UniProt P14842); experiment: Binding affinity towards rat 5-hydroxytryptamine 2A receptor was determined by using [3H]-ketanserin as radioligand
# [8] = molecular target: 5-hydroxytryptamine receptor 2A (Rattus norvegicus) (UniProt P14842)
# D(2) dopamine receptor [9] = molecular target: T1, D(2) dopamine receptor; remark: listed apart in the source
# Description: Concentration required to inhibit [3H]YM-09151-2 binding to human D2 dopamine receptor
# D(2) dopamine receptor [10] = molecular target: T1, D(2) dopamine receptor; remark: listed apart in the source
# D(2) dopamine receptor [11] = molecular target: T1, D(2) dopamine receptor; remark: listed apart in the source
# Description: High binding affinity towards human D2 dopamine receptor was determined by using [3H]YM-09151-2 as radioligand
# [12] = molecular target: T5, 5-hydroxytryptamine receptor 2A; experiment: Antagonism of 5-hydroxytryptamine 2A receptor was determined using rat aortal strip contraction assay
# T5 sequence (P14842 whole entry): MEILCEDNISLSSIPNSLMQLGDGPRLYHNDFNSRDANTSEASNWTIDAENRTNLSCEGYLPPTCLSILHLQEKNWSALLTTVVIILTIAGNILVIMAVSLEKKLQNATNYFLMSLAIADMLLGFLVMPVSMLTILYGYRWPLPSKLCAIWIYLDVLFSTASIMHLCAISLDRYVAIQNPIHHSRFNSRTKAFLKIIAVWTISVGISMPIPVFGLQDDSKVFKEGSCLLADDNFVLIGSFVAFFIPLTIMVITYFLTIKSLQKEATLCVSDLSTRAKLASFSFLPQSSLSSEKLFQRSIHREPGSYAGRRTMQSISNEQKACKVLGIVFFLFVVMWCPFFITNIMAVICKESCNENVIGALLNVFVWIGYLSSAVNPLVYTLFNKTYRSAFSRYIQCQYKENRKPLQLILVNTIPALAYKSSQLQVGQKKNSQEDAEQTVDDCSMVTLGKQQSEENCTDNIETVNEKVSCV
# 5-hydroxytryptamine receptor 2A (Rattus norvegicus), sequence (P14842 whole entry): as above
# T1 sequence (P14416 whole entry): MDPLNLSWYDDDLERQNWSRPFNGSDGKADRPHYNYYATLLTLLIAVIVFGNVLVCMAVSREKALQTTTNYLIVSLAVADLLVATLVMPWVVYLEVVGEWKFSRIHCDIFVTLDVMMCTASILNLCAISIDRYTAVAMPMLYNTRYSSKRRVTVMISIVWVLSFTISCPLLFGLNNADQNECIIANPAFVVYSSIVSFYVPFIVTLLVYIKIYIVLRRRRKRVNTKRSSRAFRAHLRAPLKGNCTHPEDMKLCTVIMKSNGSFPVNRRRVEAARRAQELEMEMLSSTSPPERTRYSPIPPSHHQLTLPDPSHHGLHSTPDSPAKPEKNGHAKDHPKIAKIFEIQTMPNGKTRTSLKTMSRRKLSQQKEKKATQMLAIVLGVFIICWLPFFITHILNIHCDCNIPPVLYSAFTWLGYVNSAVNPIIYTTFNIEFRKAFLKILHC
# D(3) dopamine receptor, sequence (P35462 whole entry): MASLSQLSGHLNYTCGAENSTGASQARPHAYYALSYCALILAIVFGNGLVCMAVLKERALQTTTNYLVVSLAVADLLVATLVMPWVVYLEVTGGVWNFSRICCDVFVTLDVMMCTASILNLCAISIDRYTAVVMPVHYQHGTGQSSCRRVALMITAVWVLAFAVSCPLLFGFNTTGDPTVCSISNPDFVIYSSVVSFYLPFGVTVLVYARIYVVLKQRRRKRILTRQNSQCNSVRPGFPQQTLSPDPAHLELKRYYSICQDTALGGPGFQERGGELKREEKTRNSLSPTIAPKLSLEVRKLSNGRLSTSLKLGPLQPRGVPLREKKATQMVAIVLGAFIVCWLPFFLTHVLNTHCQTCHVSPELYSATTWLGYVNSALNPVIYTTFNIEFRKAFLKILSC
# T2 sequence (P21728 whole entry): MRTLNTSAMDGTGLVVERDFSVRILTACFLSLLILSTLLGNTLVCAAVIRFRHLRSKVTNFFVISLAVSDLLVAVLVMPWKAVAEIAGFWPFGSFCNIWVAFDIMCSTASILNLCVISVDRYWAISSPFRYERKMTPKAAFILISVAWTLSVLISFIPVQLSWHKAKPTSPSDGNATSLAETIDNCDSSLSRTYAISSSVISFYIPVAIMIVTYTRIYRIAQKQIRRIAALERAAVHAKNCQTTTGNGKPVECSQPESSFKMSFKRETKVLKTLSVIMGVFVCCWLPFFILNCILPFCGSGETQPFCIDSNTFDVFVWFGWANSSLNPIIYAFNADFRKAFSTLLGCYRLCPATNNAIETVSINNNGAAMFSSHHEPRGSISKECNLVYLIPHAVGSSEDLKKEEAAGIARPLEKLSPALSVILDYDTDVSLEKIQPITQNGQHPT
SMILES,pKi (D(3) dopamine receptor),pKi (D(2) dopamine receptor [1]),pKi (D(1A) dopamine receptor [2]),pIC50 [3],pKi [4],pIC50 (D(1A) dopamine receptor [5]),pKi [6],pKi [7],Ke [8],pIC50 (D(2) dopamine receptor [9]),pKi (D(2) dopamine receptor [10]),pKi (D(2) dopamine receptor [11]),Kb [12]
"CN1CCCCC1CCN1c2ccccc2Sc2ccc([S+](C)[O-])cc21 (single isomer, unassigned; 2) [listing 1 of 2 here]",7.64,–,6.99,8.00 and 7.46,6.98,6.86,6.39,7.26,–,7.11,5.81,8.66,0.00631 µM
"CN1CCCCC1CCN1c2ccccc2Sc2ccc([S+](C)[O-])cc21 (single isomer, unassigned; 2) [listing 2 of 2 here]",–,–,–,–,–,–,–,–,7 nM,–,–,–,–

# The remaining lines, values ahead:
pKi (D(3) dopamine receptor),pKi (D(2) dopamine receptor [1]),pKi (D(1A) dopamine receptor [2]),pIC50 [3],pKi [4],pIC50 (D(1A) dopamine receptor [5]),pKi [6],pKi [7],Ke [8],pIC50 (D(2) dopamine receptor [9]),pKi (D(2) dopamine receptor [10]),pKi (D(2) dopamine receptor [11]),Kb [12],SMILES
6.71,6.37,6.21,6.63 and 6.39,6.40,5.90,6.39,6.38,–,–,–,–,–,CN1CCCC[C@H]1CCN1c2ccccc2Sc2ccc([S@](C)=O)cc21
7.59,–,6.50,8.40 and 7.80,7.19,6.34,6.95,7.72,2.5 nM,7.20,5.73,8.92,0.00251 µM,CN1CCCC[C@@H]1CCN1c2ccccc2Sc2ccc([S@@](C)=O)cc21
7.02,6.52,5.71,6.79 and 6.59,6.46,–,6.15,6.95,–,6.08,–,–,0.0251 µM,"CN1CCCCC1CCN1c2ccccc2Sc2ccc([S+](C)[O-])cc21 (single isomer, unassigned; 3) [listing 1 of 2 here]"
–,–,–,–,–,–,–,–,28 nM,–,–,–,–,"CN1CCCCC1CCN1c2ccccc2Sc2ccc([S+](C)[O-])cc21 (single isomer, unassigned; 3) [listing 2 of 2 here]"
